According to the CheMixHub viscosity set:
Where “and” joins values, the source holds several entries; their conditions need not be identical. Identical values can stand only once. ± gives the uncertainty stated by the source.

Assay: xn = mol fraction of the nth substance listed

## O=[N+]([O-])c1ccccc1 + Cc1ccccc1
298.15 K, 101 kPa, x1 = 0.115
  viscosity: 0.622 ± 0.006 mPa·s
298.15 K, 101 kPa, x1 = 0.227
  viscosity: 0.702 ± 0.006 mPa·s
298.15 K, 101 kPa, x1 = 0.344
  viscosity: 0.803 ± 0.007 mPa·s
298.15 K, 101 kPa, x1 = 0.457
  viscosity: 0.894 ± 0.008 mPa·s
298.15 K, 101 kPa, x1 = 0.577
  viscosity: 1.03 ± 0.009 mPa·s
298.15 K, 101 kPa, x1 = 0.675
  viscosity: 1.169 ± 0.01 mPa·s
298.15 K, 101 kPa, x1 = 0.787
  viscosity: 1.374 ± 0.012 mPa·s
298.15 K, 101 kPa, x1 = 0.87
  viscosity: 1.542 ± 0.013 mPa·s
303.15 K, 101 kPa, x1 = 0.115
  viscosity: 0.586 ± 0.005 mPa·s
303.15 K, 101 kPa, x1 = 0.227
  viscosity: 0.66 ± 0.006 mPa·s
303.15 K, 101 kPa, x1 = 0.344
  viscosity: 0.743 ± 0.007 mPa·s
303.15 K, 101 kPa, x1 = 0.457
  viscosity: 0.837 ± 0.007 mPa·s
303.15 K, 101 kPa, x1 = 0.577
  viscosity: 0.956 ± 0.008 mPa·s
303.15 K, 101 kPa, x1 = 0.675
  viscosity: 1.08 ± 0.009 mPa·s
303.15 K, 101 kPa, x1 = 0.787
  viscosity: 1.252 ± 0.011 mPa·s
303.15 K, 101 kPa, x1 = 0.87
  viscosity: 1.42 ± 0.012 mPa·s
308.15 K, 101 kPa, x1 = 0.115
  viscosity: 0.554 ± 0.005 mPa·s
308.15 K, 101 kPa, x1 = 0.227
  viscosity: 0.618 ± 0.006 mPa·s
308.15 K, 101 kPa, x1 = 0.344
  viscosity: 0.694 ± 0.006 mPa·s
308.15 K, 101 kPa, x1 = 0.457
  viscosity: 0.783 ± 0.007 mPa·s
308.15 K, 101 kPa, x1 = 0.577
  viscosity: 0.922 ± 0.008 mPa·s
308.15 K, 101 kPa, x1 = 0.675
  viscosity: 1.042 ± 0.009 mPa·s
308.15 K, 101 kPa, x1 = 0.787
  viscosity: 1.157 ± 0.01 mPa·s
308.15 K, 101 kPa, x1 = 0.87
  viscosity: 1.313 ± 0.011 mPa·s

## ClC(Cl)=C(Cl)Cl + C1COCCO1
303.15 K, 101.33 kPa, x2 = 0.0711
  viscosity: 0.8321 ± 0.0061 mPa·s
303.15 K, 101.33 kPa, x2 = 0.1527
  viscosity: 0.8661 ± 0.0063 mPa·s
303.15 K, 101.33 kPa, x2 = 0.2465
  viscosity: 0.8991 ± 0.0065 mPa·s
303.15 K, 101.33 kPa, x2 = 0.3656
  viscosity: 0.9331 ± 0.0068 mPa·s
303.15 K, 101.33 kPa, x2 = 0.4126
  viscosity: 0.9447 ± 0.0068 mPa·s
303.15 K, 101.33 kPa, x2 = 0.5332
  viscosity: 0.9725 ± 0.007 mPa·s
303.15 K, 101.33 kPa, x2 = 0.6532
  viscosity: 0.9982 ± 0.0072 mPa·s
303.15 K, 101.33 kPa, x2 = 0.7921
  viscosity: 1.03 ± 0.0074 mPa·s
303.15 K, 101.33 kPa, x2 = 0.8937
  viscosity: 1.055 ± 0.0076 mPa·s
303.15 K, 101.33 kPa, x2 = 0.9581
  viscosity: 1.074 ± 0.0078 mPa·s

## c1ccccc1 + CCCCO
293.15 K, 101.33 kPa, x2 = 0.2
  viscosity: 0.714 ± 0.014 mPa·s and 0.714 ± 0.019 mPa·s
293.15 K, 101.33 kPa, x2 = 0.4
  viscosity: 0.898 ± 0.024 mPa·s
293.15 K, 101.33 kPa, x2 = 0.5
  viscosity: 1.054 ± 0.021 mPa·s and 1.054 ± 0.029 mPa·s
293.15 K, 101.33 kPa, x2 = 0.6
  viscosity: 1.279 ± 0.035 mPa·s
293.15 K, 101.33 kPa, x2 = 0.8
  viscosity: 1.92 ± 0.053 mPa·s
298.15 K, 101 kPa, x1 = 0.082
  viscosity: 2.158 ± 0.022 mPa·s
298.15 K, 101 kPa, x1 = 0.151
  viscosity: 1.88 ± 0.019 mPa·s
298.15 K, 101 kPa, x1 = 0.254
  viscosity: 1.511 ± 0.016 mPa·s
298.15 K, 101 kPa, x1 = 0.345
  viscosity: 1.277 ± 0.013 mPa·s
298.15 K, 101 kPa, x1 = 0.52
  viscosity: 0.919 ± 0.01 mPa·s
298.15 K, 101 kPa, x1 = 0.678
  viscosity: 0.754 ± 0.008 mPa·s
298.15 K, 101 kPa, x1 = 0.841
  viscosity: 0.63 ± 0.007 mPa·s
298.15 K, 101 kPa, x1 = 0.915
  viscosity: 0.601 ± 0.006 mPa·s
298.15 K, 101 kPa, x2 = 0.05
  viscosity: 0.604 ± 0.016 mPa·s
298.15 K, 101 kPa, x2 = 0.1
  viscosity: 0.62 ± 0.016 mPa·s
298.15 K, 101 kPa, x2 = 0.16
  viscosity: 0.64 ± 0.017 mPa·s
298.15 K, 101 kPa, x2 = 0.21
  viscosity: 0.664 ± 0.018 mPa·s
298.15 K, 101 kPa, x2 = 0.41
  viscosity: 0.842 ± 0.022 mPa·s
298.15 K, 101 kPa, x2 = 0.51
  viscosity: 1.006 ± 0.026 mPa·s
298.15 K, 101 kPa, x2 = 0.61
  viscosity: 1.178 ± 0.031 mPa·s
298.15 K, 101 kPa, x2 = 0.81
  viscosity: 1.684 ± 0.044 mPa·s
298.15 K, 101.33 kPa, x2 = 0.2
  viscosity: 0.655 ± 0.013 mPa·s
298.15 K, 101.33 kPa, x2 = 0.216
  viscosity: 0.657 ± 0.004 mPa·s
298.15 K, 101.33 kPa, x2 = 0.409
  viscosity: 0.824 ± 0.005 mPa·s
298.15 K, 101.33 kPa, x2 = 0.604
  viscosity: 1.119 ± 0.007 mPa·s
298.15 K, 101.33 kPa, x2 = 0.808
  viscosity: 1.71 ± 0.011 mPa·s
303 K, 101.3 kPa, x1 = 0.1035
  viscosity: 1.9 ± 0.059 mPa·s
303 K, 101.3 kPa, x1 = 0.2024
  viscosity: 1.601 ± 0.053 mPa·s
303 K, 101.3 kPa, x1 = 0.3037
  viscosity: 1.344 ± 0.048 mPa·s
303 K, 101.3 kPa, x1 = 0.4
  viscosity: 1.145 ± 0.045 mPa·s
303 K, 101.3 kPa, x1 = 0.5047
  viscosity: 0.9759 ± 0.042 mPa·s
303 K, 101.3 kPa, x1 = 0.5931
  viscosity: 0.8562 ± 0.041 mPa·s
303 K, 101.3 kPa, x1 = 0.7016
  viscosity: 0.7412 ± 0.039 mPa·s
303 K, 101.3 kPa, x1 = 0.766
  viscosity: 0.6921 ± 0.038 mPa·s
303 K, 101.3 kPa, x1 = 0.8859
  viscosity: 0.611 ± 0.037 mPa·s
303.15 K, 101 kPa, x1 = 0.082
  viscosity: 1.918 ± 0.019 mPa·s
303.15 K, 101 kPa, x1 = 0.151
  viscosity: 1.668 ± 0.017 mPa·s
303.15 K, 101 kPa, x1 = 0.254
  viscosity: 1.354 ± 0.014 mPa·s
303.15 K, 101 kPa, x1 = 0.345
  viscosity: 1.145 ± 0.012 mPa·s
303.15 K, 101 kPa, x1 = 0.52
  viscosity: 0.838 ± 0.009 mPa·s
303.15 K, 101 kPa, x1 = 0.678
  viscosity: 0.694 ± 0.007 mPa·s
303.15 K, 101 kPa, x1 = 0.841
  viscosity: 0.587 ± 0.006 mPa·s
303.15 K, 101 kPa, x1 = 0.915
  viscosity: 0.564 ± 0.006 mPa·s
303.15 K, 101.33 kPa, x2 = 0.2
  viscosity: 0.604 ± 0.016 mPa·s
303.15 K, 101.33 kPa, x2 = 0.4
  viscosity: 0.746 ± 0.02 mPa·s
303.15 K, 101.33 kPa, x2 = 0.5
  viscosity: 0.864 ± 0.024 mPa·s
303.15 K, 101.33 kPa, x2 = 0.6
  viscosity: 1.021 ± 0.028 mPa·s
303.15 K, 101.33 kPa, x2 = 0.8
  viscosity: 1.49 ± 0.041 mPa·s
308.15 K, 101 kPa, x1 = 0.082
  viscosity: 1.702 ± 0.017 mPa·s
308.15 K, 101 kPa, x1 = 0.151
  viscosity: 1.49 ± 0.015 mPa·s
308.15 K, 101 kPa, x1 = 0.254
  viscosity: 1.209 ± 0.012 mPa·s
308.15 K, 101 kPa, x1 = 0.345
  viscosity: 1.032 ± 0.011 mPa·s
308.15 K, 101 kPa, x1 = 0.52
  viscosity: 0.764 ± 0.008 mPa·s
308.15 K, 101 kPa, x1 = 0.678
  viscosity: 0.64 ± 0.007 mPa·s
308.15 K, 101 kPa, x1 = 0.841
  viscosity: 0.549 ± 0.006 mPa·s
308.15 K, 101 kPa, x1 = 0.915
  viscosity: 0.529 ± 0.006 mPa·s
308.15 K, 101.33 kPa, x2 = 0.2
  viscosity: 0.562 ± 0.011 mPa·s and 0.562 ± 0.015 mPa·s
308.15 K, 101.33 kPa, x2 = 0.216
  viscosity: 0.564 ± 0.003 mPa·s
308.15 K, 101.33 kPa, x2 = 0.4
  viscosity: 0.687 ± 0.019 mPa·s
308.15 K, 101.33 kPa, x2 = 0.409
  viscosity: 0.691 ± 0.004 mPa·s
308.15 K, 101.33 kPa, x2 = 0.5
  viscosity: 0.791 ± 0.016 mPa·s and 0.791 ± 0.021 mPa·s
308.15 K, 101.33 kPa, x2 = 0.6
  viscosity: 0.924 ± 0.025 mPa·s
308.15 K, 101.33 kPa, x2 = 0.604
  viscosity: 0.911 ± 0.005 mPa·s
308.15 K, 101.33 kPa, x2 = 0.8
  viscosity: 1.335 ± 0.036 mPa·s
308.15 K, 101.33 kPa, x2 = 0.808
  viscosity: 1.353 ± 0.008 mPa·s
313.15 K, 101 kPa, x1 = 0.082
  viscosity: 1.51 ± 0.015 mPa·s
313.15 K, 101 kPa, x1 = 0.151
  viscosity: 1.336 ± 0.014 mPa·s
313.15 K, 101 kPa, x1 = 0.254
  viscosity: 1.086 ± 0.011 mPa·s
313.15 K, 101 kPa, x1 = 0.345
  viscosity: 0.934 ± 0.01 mPa·s
313.15 K, 101 kPa, x1 = 0.52
  viscosity: 0.702 ± 0.007 mPa·s
313.15 K, 101 kPa, x1 = 0.678
  viscosity: 0.593 ± 0.006 mPa·s
313.15 K, 101 kPa, x1 = 0.841
  viscosity: 0.513 ± 0.005 mPa·s
313.15 K, 101 kPa, x1 = 0.915
  viscosity: 0.494 ± 0.005 mPa·s
318.15 K, 101 kPa, x1 = 0.082
  viscosity: 1.351 ± 0.014 mPa·s
318.15 K, 101 kPa, x1 = 0.151
  viscosity: 1.195 ± 0.012 mPa·s
318.15 K, 101 kPa, x1 = 0.254
  viscosity: 0.979 ± 0.01 mPa·s
318.15 K, 101 kPa, x1 = 0.345
  viscosity: 0.847 ± 0.009 mPa·s
318.15 K, 101 kPa, x1 = 0.52
  viscosity: 0.645 ± 0.006 mPa·s
318.15 K, 101 kPa, x1 = 0.678
  viscosity: 0.553 ± 0.006 mPa·s
318.15 K, 101 kPa, x1 = 0.841
  viscosity: 0.48 ± 0.005 mPa·s
318.15 K, 101 kPa, x1 = 0.915
  viscosity: 0.465 ± 0.005 mPa·s
